Data as given in patent US12297426B2, “DNA damage response signature guided rational design of CRISPR-based systems and therapies” (THE BROAD INSTITUTE, INC., priority 2019, dated 2025).

System: MCF7 cells
Assay: Drug response assay (CellTiter-Glo)
Format: cell-based, human
Settings: Cas9-expressing vs parental MCF7 cells; 0 μM-100 μM, 72 h
Description: To further test the functional implications of Cas9-induced p53 activation, compared the response of parental and Cas9-expressing MCF7 cells to the MDM2-inhibitor nutlin-3 was compared. […] Without being bound by theory, these findings conclude that Cas9-induced p53 activation can affect both genetic and chemical perturbation assays.
MCF7 cells were seeded at a density of 9,000 cells per well in a 96-well plate. The next day, media was washed and fresh media containing nutlin-3 (Sigma-Aldrich) was added to the corresponding wells in a concentration range of 0 μM-100 μM. After 72 h of incubation, levels of ATP were measured as a surrogate marker for cell viability using the CellTiter-Glo assay (Promega). Luminescence measurements were acquired in a SpectraMax reader (ATC) using an integration time of 500 ms.

With `COc1ccc(C2=N[C@@H](c3ccc(Cl)cc3)[C@@H](c3ccc(Cl)cc3)N2C(=O)N2CCNC(=O)C2)c(OC(C)C)c1` [nutlin-3] the drug sensitivity was “modest, but significant, increase”.
